Data as given in US10881677B2, “Composition for modulating IRAK1” (Agency for Science, Technology and Research, priority 2015, dated 2021).

What was measured:
p-IRAK1 (T209) = biological target: T1, p-IRAK1 (T209) (Homo sapiens, UniProt P51617); test: Western blot of p-IRAK1 in immunoprecipitated IRAK1; type: cell-based
T1 construct: The whole cell lysate were extracted with the NE-PER kit (Pierce Biotechnology) and subjected to immunoprecipitation using 2 μg total-IRAK1 antibody; endogenous in cells; host or cells: TNBC cell lines (BT549, MB436, MB468, MDA231, MDA231-LM2, SUM159 and paclitaxel-resistant sublines)
T1 sequence (P51617 whole entry): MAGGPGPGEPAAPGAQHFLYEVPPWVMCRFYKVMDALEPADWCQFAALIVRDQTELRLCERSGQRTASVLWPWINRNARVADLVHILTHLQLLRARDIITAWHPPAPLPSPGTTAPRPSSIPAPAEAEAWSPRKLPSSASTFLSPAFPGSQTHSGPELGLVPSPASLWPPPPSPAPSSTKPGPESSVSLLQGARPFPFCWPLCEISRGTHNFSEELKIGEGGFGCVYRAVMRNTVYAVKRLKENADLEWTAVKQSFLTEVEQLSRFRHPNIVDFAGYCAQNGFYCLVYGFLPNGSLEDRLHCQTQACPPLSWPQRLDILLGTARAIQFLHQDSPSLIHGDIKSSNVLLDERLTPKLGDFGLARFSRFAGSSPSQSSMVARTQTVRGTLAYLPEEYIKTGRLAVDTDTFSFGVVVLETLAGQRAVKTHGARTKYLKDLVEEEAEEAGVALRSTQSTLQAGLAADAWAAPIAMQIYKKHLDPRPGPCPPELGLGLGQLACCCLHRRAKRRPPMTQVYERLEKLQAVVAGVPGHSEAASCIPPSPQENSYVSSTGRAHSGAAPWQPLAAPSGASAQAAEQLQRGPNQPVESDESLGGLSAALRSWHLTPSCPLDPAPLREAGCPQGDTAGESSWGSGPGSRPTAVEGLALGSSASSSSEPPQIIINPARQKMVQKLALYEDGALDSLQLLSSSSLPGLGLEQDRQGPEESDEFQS
Procedure: (§1) Western Blotting was performed as described previously (8). IRAK1 (Cat no: #4359), IRAK4 (Cat no.: 4363), cleaved PARP (Cat no.: #9541), p38 MAPK (Cat no.: #9212), phospho-p38 MAPK (T180/Y182) (Cat no.: #9211), phospho-NF-KappaB p65 (S536) (Cat no. #3031) were purchased from Cell Signaling (Danvers, Mass.). Phospho-IRAK1 (T209) antibody was purchased from Assay Biotech (Sunnyvale, Calif., Cat no.: A1074) and phospho-IRAK1 (S376) antibody from Genetex (Irvine, Calif., Cat no.: GTX50994). MCL-1 antibody was purchased from Santa Cruz Biotechnology (Santa Cruz, Calif., Cat no.: sc-819). Actin was purchased from Sigma-Aldrich (St Louis, Mo., Cat no.: A5441). Detection of bands was performed with the ChemiDoc™ MP Imaging Systems (Bio-Rad, Hercules, Calif.) and bands were subjected to further densitometric analysis with Image Lab software (Version 4.1, Bio-rad, Hercules, Calif.).
Co-IP was performed as described previously (9). The whole cell lysate were extracted with the NE-PER kit (Pierce Biotechnology) and subjected to immunoprecipitation using 2 μg total-IRAK1 antibody (Santa Cruz Biotech, Santa Cruz, Calif., Cat no.: sc-7883). The precipitated protein complex was captured using protein A-Agarose beads (Roche) and extensively washed with the washing buffer (50 mM Tris-HCl, 150 mM NaCl, 0.1% triton). The precipitated proteins were dissolved in SDS sample buffer along with 3 mM DTT, and subjected to immunoblotting analysis. Phospho-IRAK1 (T209) (Assay Biotechnology, Sunnyvale, Calif., Cat no.: A1074) was used for detection.

[1] = tested on: BT549, MB436, MB468, MDA231 and MDA231-LM2 cells; test: Mammosphere formation assay; type: cell-based; conditions: 5 μM IRAK-inh
Procedure: Active growing cells were treated with 0.05% trypsin for 10 minutes then passed through […] cell strainer to achieve single cell suspension. Cells were plated (MDA231: 1×10^4; MB436: 3×10^4; MB468: 4×10^4 cells/well, BT549: 3×10^4, MDA231-LM2: 3×10^4) seeded in 6-well ultra-low attachment plates (Corning, Corning, N.Y., cat: CLS3471) in Mammocult medium (Stem cell Technologies, Vancouver, BC, Canada), supplemented with fresh hydrocortisone (0.51 μg/ml) and heparin (1:500). Tumorspheres were cultured for 7 days prior to being counted and photographed. Imaging and quantification were done using GelCount™ apparatus and associated software (Oxford Optronix, Abingdon, UK). For serial passages of tumorsphere formation assay, the spheres were collected by gentle centrifugation, dissociated to single cells for passaging tumorspheres every 14 days and counted. Tumorspheres were photographed and quantified 7-12 days later using a GelCount Colony Counter after staining with INT.

[2] = tested on: MDA231 and SUM159 parental and Paclitaxel-resistant sublines (PR); test: Cell viability of parental and Paclitaxel-resistant sublines, combination treatment; type: cell-based
Procedure: For cell proliferation assay, the optimal cell seeding was first determined empirically for all cell lines by examining the growth of a wide range of seeding densities in a 96-well format to identify conditions that permitted proliferation for 7 days. Cells were then plated at the optimal seeding density 24 h before siRNA or drug treatment in triplicate. Plates were incubated for 7 days at 37° C. in 5% CO2. Cells were then lysed with CellTiter-Glo (CTG) (Promega, Madison, Wis.) and chemiluminescent signal was detected with a microplate reader on Day 0, 1, 3, 5 and 7. In addition, an untreated plate of cells was harvested at the time of drug or siRNA addition (T0) to quantify the starting number of cells. CTG values obtained after the 7 day treatment were expressed as percentages of the T0 value and plotted against time of treatment.

MDA231-LM2 cells = test: Mammary fat pad MDA231-LM2 xenograft, lung metastasis by bioluminescence imaging; type: in vivo, NOD/SCID mice; conditions: for lung metastasis: IRAK-inh 4 mg/kg, qd, ip, 14 days, started 7 days before primary tumor removal
[3] = tested on: p38-MCL-1 signaling in SUM159-PR cells; test: Western blot of p-p38, MCL-1 and cleaved PARP; type: cell-based; conditions: inhibitor with Paclitaxel
Procedure: as §1

IRAK1 = IRAK1 (Homo sapiens, UniProt P51617); conditions: recently shown in Myelodysplastic Syndrome (ref 20); cited from earlier work
Chain of IRAK1 (P51617 whole entry, species assumed): as the sequence (P51617 whole entry) above

[4] = tested on: SUM159-PR and MDA231-PR cells; test: Apoptosis by FACS analysis of Sub-G1 cells; type: cell-based; conditions: Paclitaxel-resistant cells
Procedure: Cell cycle analysis was done by DNA content quantification to quantify the sub-G1 population which is reflective of the extent of cell death. Briefly, the cells were fixed with 70% ethanol and stained with propidium iodide (50 μg/ml) staining. The stained cells were analyzed by FACScalibur (BD Bioscience) and quantified by using CellQuest software (BD bioscience).

[5] = tested on: non-cancerous MCF10A and HMLE cells; test: 3D Matrigel growth of non-cancerous cells; type: cell-based; conditions: 5 uM IRAK-inh, one week
[6] = tested on: IL-6, IL-8 and CXCL1 secretion; test: ELISA of cytokine secretion; type: cell-based
Procedure: IL-6, IL-8 and CXCL1 levels were assessed using ELISA assay kit (Boster Bio, Pleasanton, Calif.). Supernates of the mammosphere formation assay were collected after 10 days in culture. 1:50 dilution was performed on the supernates before quantifying the amount of cytokines according to the manufacturer's protocol. For cytokine antibody array, supernates collected from the NS or shIRAK1 MB436 mammospheres after 10 days in culture were used directly without further dilution. Semi-quantitative detection of 120 human cytokines and chemokines in the supernates were performed using the RayBio® C-series Human Cytokine Antibody Array C1000 (RayBiotech, Inc., Norcross, GS, Cat no.: #AAH-CYT-1000-2) as per manufacturer's instructions. Detection of dots was performed with the ChemiDoc™ MP Imaging Systems (Bio-Rad, Hercules, Calif.) and the intensity of dots were quantified by densitometric analysis using the ImageJ software. The raw numerical densitometry data is extracted and subjected to background subtraction before normalizing the signal for each cytokines against the Positive Control signals in each cytokine array.

[7] = tested on: BT549, MB436, MB468, MDA231 and MDA231-LM2 cells; test: 3D Matrigel growth of TNBC cells; type: cell-based; conditions: 5 μM IRAK-inh
Procedure: 8-well chamber slides (Falcon, cat: 354656, Falcon) were precoated with 7.6 mg/mL growth factor-reduced Matrigel (Falcon, cat: 354230, Falcon) for 30 min at 37° C. Approximately 5×10^3 for MDA231, 1×10^4 for MB436 and MB468, 1.5×10^4 cells for BT549 with indicated treatments were seeded in each well with DMEM containing 10% (vol/vol) FBS and 150 μg/mL Matrigel. Medium were replenished every 3 days and cell growth was monitored every 3 days by imaging over duration of 10-14 days.

O=C(Nc1nc2ccccc2n1CCN1CCOCC1)c1cccc([N+](=O)[O-])c1 [IRAK-inh]
p-IRAK1 in TNBC cells (p-IRAK1 (T209); IRAK-inh 5 μM): effectively abolished the p-IRAK1
IL-1β-induced p-IRAK1 (p-IRAK1 (T209); MB436 cells, recombinant IL-1β, IRAK-inh 5 uM): abrogated
mammosphere growth ([1]; BT549, MB436 and MB468 cells): marked inhibition
mammosphere growth ([1]; MDA231-LM2 cells, 7 days): impaired
cell viability, combined with sub-toxic Paclitaxel ([2]; both Paclitaxel-resistant cell lines (MDA231-PR, SUM159-PR), 5 μM IRAK-inh): dramatic loss of cell viability
cell death in combination with paclitaxel ([2]; paclitaxel-resistant MDA231 cells, IRAK-inh 5 μM): dramatic cell death
cell viability, inhibitor on its own ([2]; paclitaxel-resistant MDA231 cells, IRAK-inh 5 μM alone): no effect
lung metastasis (MDA231-LM2 cells; listed as IRAK1-inh): markedly reduced
lung metastasis (MDA231-LM2 cells; listed as IRAK1-inn): effectively blocked
survival of mice carrying TNBC metastasis (MDA231-LM2 cells; IRAK-inh treatment): extended the survival
PARP cleavage [3]: increased PARP cleavage
p-p38 and MCL-1 expression [3]: decrease
activity against IRAK1 (IRAK1): potent activity against IRAK1
apoptosis, combined with Paclitaxel [4]: massive apoptosis
3D Matrigel growth / morphology [5]: no effect
IL-8 and CXCL1 secretion ([6]; IRAK-inh-sensitive TNBC cells, 5 μM IRAK-inh): strong reduction
secretion of IL-6, IL-8 and CXCL1 ([6]; Paclitaxel-resistant cells, IRAK1-inh plus Paclitaxel): reduced secretion
3D Matrigel growth ([7]; BT549, MB436 and MB468 cells): marked inhibition
3D Matrigel growth ([7]; MDA231-LM2 cells, 7 days): impaired
